Tested on: GNS166 cells
Test: Label-free proteomics differential expression
Type: cell-based, human
Description: Proteomic studies were performed by the Proteomics Facility of the CIC bioGUNE by label-free relative quantification on nLC MS/MS. […] In both approaches, the top 20 enriched terms were plotted and the pathways were clustered using divisive hierarchical clustering based on pairwise Jaccard distances.

[1] = label-free proteomics, sheet DDI Prot

C#CCN(Cc1cc2cc(OCCCN3CCCCC3)ccc2n1S(=O)(=O)c1ccccc1)C(=O)CCCCCCC(=O)NO [DDI]
Direction of BIEA_HUMAN (P53004, GN=BLVRA) protein [1]: Up
Direction of CASP3_HUMAN (P42574, GN=CASP3) protein [1]: Up
Direction of COEA1_HUMAN (Q05707, GN=COL14A1) protein [1]: Up
Direction of GSH1_HUMAN (P48506, GN=GCLC) protein [1]: Up
Direction of LKHA4_HUMAN (P09960, GN=LTA4H) protein [1]: Up
Direction of NDUAC_HUMAN (Q9UI09, GN=NDUFA12) protein [1]: Up
Direction of PGPS1_HUMAN (Q32NB8, GN=PGS1) protein [1]: Up
Direction of PTSS1_HUMAN (P48651, GN=PTDSS1) protein [1]: Up
Direction of RETST_HUMAN (Q6NUM9, GN=RETSAT) protein [1]: Up
Direction of WDR47_HUMAN (O94967, GN=WDR47) protein [1]: Up
Direction of YIPF5_HUMAN (Q969M3, GN=YIPF5) protein [1]: Up
LogFC of PGPS1_HUMAN (Q32NB8, GN=PGS1) protein (label-free proteomics, sheet DDI Prot, p value 0.0469656): 1.405
LogFC of BIEA_HUMAN (P53004, GN=BLVRA) protein (label-free proteomics, sheet DDI Prot, p value 0.0475587): 0.7997
LogFC of GSH1_HUMAN (P48506, GN=GCLC) protein (label-free proteomics, sheet DDI Prot, p value 0.0480187): 1.55
LogFC of WDR47_HUMAN (O94967, GN=WDR47) protein (label-free proteomics, sheet DDI Prot, p value 0.0482259): 1.18
LogFC of LKHA4_HUMAN (P09960, GN=LTA4H) protein (label-free proteomics, sheet DDI Prot, p value 0.0482636): 0.5863
LogFC of CASP3_HUMAN (P42574, GN=CASP3) protein (label-free proteomics, sheet DDI Prot, p value 0.0487326): 0.743
LogFC of YIPF5_HUMAN (Q969M3, GN=YIPF5) protein (label-free proteomics, sheet DDI Prot, p value 0.049075): 0.5348
LogFC of NDUAC_HUMAN (Q9UI09, GN=NDUFA12) protein (label-free proteomics, sheet DDI Prot, p value 0.0492119): 0.6479
LogFC of COEA1_HUMAN (Q05707, GN=COL14A1) protein (label-free proteomics, sheet DDI Prot, p value 0.0493344): 0.8788
LogFC of RETST_HUMAN (Q6NUM9, GN=RETSAT) protein (label-free proteomics, sheet DDI Prot, p value 0.049447): 0.7532
LogFC of PTSS1_HUMAN (P48651, GN=PTDSS1) protein (label-free proteomics, sheet DDI Prot, p value 0.0494892): 0.7741
Direction CNOT1_HUMAN (protein A5YKK6): Down
LogFC CNOT1_HUMAN (protein A5YKK6): -0.5343
Direction POTEM_HUMAN (protein A6NI47): Down
LogFC POTEM_HUMAN (protein A6NI47): -1.6004
LogFC BACH_HUMAN (protein O00154 GN=ACOT7): 0.4908
LogFC STXB3_HUMAN (protein O00186 GN=STXBP3): -0.9203
Direction P3C2A_HUMAN (protein O00443): Down
LogFC P3C2A_HUMAN (protein O00443): -0.6873
LogFC SDCB1_HUMAN (protein O00560 GN=SDCBP): 2.446
Direction DDX3X_HUMAN (protein O00571): Down
LogFC DDX3X_HUMAN (protein O00571): -0.4203
LogFC ACOD_HUMAN (protein O00767 GN=SCD): 1.2881
Direction ARI1A_HUMAN (protein O14497): Down
LogFC ARI1A_HUMAN (protein O14497): -1.314
LogFC TOR1A_HUMAN (protein O14656 GN=TOR1A): -0.6936
Direction ANM5_HUMAN (protein O14744): Down
LogFC ANM5_HUMAN (protein O14744): -0.2326
Direction CHK1_HUMAN (protein O14757): Down
LogFC CHK1_HUMAN (protein O14757): -0.9245
LogFC GIPC1_HUMAN (protein O14908 GN=GIPC1): 1.5016
Direction AURKA_HUMAN (protein O14965): Down
LogFC AURKA_HUMAN (protein O14965): -3.358
Direction DEGS1_HUMAN (protein O15121): Down
LogFC DEGS1_HUMAN (protein O15121): -0.1717
LogFC PGRC2_HUMAN (protein O15173 GN=PGRMC2): 0.7586
LogFC ACOX3_HUMAN (protein O15254 GN=ACOX3): 1.235
Direction OGT1_HUMAN (protein O15294): Down
LogFC OGT1_HUMAN (protein O15294): -0.4734
Direction TM9S1_HUMAN (protein O15321): Down
LogFC TM9S1_HUMAN (protein O15321): -2.186
LogFC TRI18_HUMAN (protein O15344 GN=MID1): 0.3983
Direction SHIP2_HUMAN (protein O15357): Down
LogFC SHIP2_HUMAN (protein O15357): -1.6838
Direction FANCA_HUMAN (protein O15360): Down
LogFC FANCA_HUMAN (protein O15360): -1.214
LogFC MOT4_HUMAN (protein O15427 GN=SLC16A3): 1.9
Direction MRP4_HUMAN (protein O15439): Down
LogFC MRP4_HUMAN (protein O15439): -0.8149
LogFC TPSN_HUMAN (protein O15533 GN=TAPBP): -0.5526
LogFC PSMD3_HUMAN (protein O43242 GN=PSMD3): -0.4067
LogFC PAPS1_HUMAN (protein O43252 GN=PAPSS1): 0.7138
Direction VIP2_HUMAN (protein O43314): Down
LogFC VIP2_HUMAN (protein O43314): -0.766
LogFC TIM44_HUMAN (protein O43615 GN=TIMM44): -0.5983
Direction BUD23_HUMAN (protein O43709): Down
LogFC BUD23_HUMAN (protein O43709): -2.307
Direction AKAP8_HUMAN (protein O43823): Down
LogFC AKAP8_HUMAN (protein O43823): -2.082
Direction GTPB6_HUMAN (protein O43824): Down
LogFC GTPB6_HUMAN (protein O43824): -1.261
Direction KIF1B_HUMAN (protein O60333): Down
LogFC KIF1B_HUMAN (protein O60333): -2
LogFC NRP2_HUMAN (protein O60462 GN=NRP2): -0.6899
LogFC OGA_HUMAN (protein O60502 GN=OGA): 0.8005
LogFC RNBP6_HUMAN (protein O60518 GN=RANBP6): 1.52
LogFC CPNE3_HUMAN (protein O75131 GN=CPNE3): 0.4901
LogFC HIP1R_HUMAN (protein O75146 GN=HIP1R): 2.1312
Direction CLU_HUMAN (protein O75153): Down
LogFC CLU_HUMAN (protein O75153): -0.6987
Direction MPU1_HUMAN (protein O75352): Down
LogFC MPU1_HUMAN (protein O75352): -0.8716
Direction ENTP6_HUMAN (protein O75354): Down
LogFC ENTP6_HUMAN (protein O75354): -1.463
LogFC MTX2_HUMAN (protein O75431 GN=MTX2): -0.4239
Direction UTP20_HUMAN (protein O75691): Down
LogFC UTP20_HUMAN (protein O75691): -1.068
Direction DNJC8_HUMAN (protein O75937): Down
LogFC DNJC8_HUMAN (protein O75937): -0.4544
Direction TSN9_HUMAN (protein O75954): Down
LogFC TSN9_HUMAN (protein O75954): -3.176
LogFC SRP72_HUMAN (protein O76094 GN=SRP72): -0.4411
LogFC IPO13_HUMAN (protein O94829 GN=IPO13): 1.054
LogFC K0754_HUMAN (protein O94854 GN=KIAA0754): -2.89
LogFC GLSK_HUMAN (protein O94925 GN=GLS): 1.0422
Direction SOGA1_HUMAN (protein O94964): Down
LogFC SOGA1_HUMAN (protein O94964): -1.709
Direction UBR5_HUMAN (protein O95071): Down
LogFC UBR5_HUMAN (protein O95071): -1.078
LogFC GBRAP_HUMAN (protein O95166 GN=GABARAP): 0.6601
Direction KIF4A_HUMAN (protein O95239): Down
LogFC KIF4A_HUMAN (protein O95239): -2.337
Direction GOSR1_HUMAN (protein O95249): Down
LogFC GOSR1_HUMAN (protein O95249): -1.68
Direction KAT7_HUMAN (protein O95251): Down
LogFC KAT7_HUMAN (protein O95251): -3.074
Direction SMC2_HUMAN (protein O95347): Down
LogFC SMC2_HUMAN (protein O95347): -0.9053
LogFC SYFM_HUMAN (protein O95363 GN=FARS2): -0.6412
LogFC G6PE_HUMAN (protein O95479 GN=H6PD): -1.176
LogFC ACSL3_HUMAN (protein O95573 GN=ACSL3): 1.019
LogFC ASML_HUMAN (protein O95671 GN=ASMTL): 3.03
Direction STAU1_HUMAN (protein O95793): Down

— paper PMC11971462, “Generation and validation of a novel multitarget small molecule in glioblastoma” (Cell Death & Disease, 2025)
